Values after ≈ are worked out from the molar mass of the structure shown.
Key:
[1] = system: Gram positive bacteria (Staphylococcus aureus, Enterococcus faecalis), Gram negative bacteria (E. Coli and Pseudomonas aeruginosa); assay: Kirby-Bauer disc diffusion, bacteria; format: cell-based
[2] = system: fungal cultures (Candida albicans & Cryptococcus neoformans); assay: Kirby-Bauer disc diffusion, fungi; format: cell-based
Male Albino Mice = assay: Acetic Acid-Induced Writhing Response test; format: in vivo
Experimental: Group-I: Control-Normal saline (0.1 ml i.p./10 gm) • 2. Group-II: Diclofenac (10 mg/kg body weight, i.p.) • 3. Group-V: Compound-ARP100120 (3 mg/kg body weight, i.p.) • The number of writhes (abdominal muscular contractions), stretching of the hind limbs and trunk twisting were counted 5 minutes after the injection of 1% acetic acid (v/v, 0.1 mL/10 g body weight, i.p.). The data collected represented the total number of writhes observed in duration of 10 minutes (5-15 minutes after the injection). Percentage inhibition was then calculated. Percentage inhibition ═(N−N^t/N)×100, where N is the average number of writhing of control group and N^t is the average number of writhing of test group. • Results are as follows: […]

[3] = system: M. tuberculosis (H37RV Strain) ATCC 25177; assay: Anti-TB activity, microplate Alamar Blue assay (MABA); format: cell-based, Mycobacterium Tuberculosis; conditions: for MIC: Mycobacterium tuberculosis, 120 h, read-out: MIC (minimum inhibition concentration); for MIC (minimum inhibition concentration): lowest drug concentration preventing colour change blue to pink, 37° C., five days, tested 100 to 0.2 μg/ml
Streptococcus mutans = assay: Kirby Bauer disc diffusion, Streptococcus mutans; format: cell-based
Corynebacterium = assay: Kirby Bauer disc diffusion, Corynebacterium; format: cell-based
Male Wistar rats = assay: Eddy Hot Plate method; format: in vivo; conditions: 0.5 mg/kg and 1 mg/kg s.c., 55±0.5° C., compared to pentazocine 20 mg/kg s.c.
Experimental: Male Wistar rats initially weighing 180-200 g were divided into the following groups of six animals each as follows: • Experiment-I: • 1. Group-I: Control—10% Dimethyl sulfoxide (DMSO) (0.5 ml s.c) • 2. Group-II: Standard—Pentazocine (20 mg/kg body weight, s.c.) • 3. Group-III: Compound-ARP100102 (0.5 mg/kg body weight, s.c.) • Experiment-II: • Same as Experiment I except Group III dosage was 1 mg/kg body weight. • The hot plate method was originally developed by Woolfe and MacDonald (1944). The paws of rat are very sensitive to heat at temperatures which are not damaging to the skin. The response is in the form of jumping, withdrawal of paws or licking of the paws (Eddy and Leimback, 1953). The animals were placed on Eddy's hot plate at a temperature of 55±0.5° C. […] Reaction time and the type of response were noted using a stopwatch. The latency was recorded before and after 30, 60, 90 and 120 minutes following s.c. injection of test compounds (0.5 mg and 1 mg·kg), standard drug (pentazocine) and control vehicle respectively. The dose selection of the test compounds was based on the literature of nicotine (0.32-1.6 mg/kg s.c.). Average reaction time was then calculated and the percentage variation calculated using the following ratio: Percentage protection=Drug latency−Baseline latency×100Baseline latency

For `CN1CCC(C(=O)c2cncc(-c3ccc(Cl)cc3)c2)C1=O` (stereo not shown) [ARP100105, 3-(5-(4-chlorophenyl)nicotinoyl)-1-methylpyrrolidin-2-one], the “antibacterial activity (zone of inhibition, disc diffusion)” value ([1]; 50 μg) was “both antibacterial and antifungal activity”, the “antibacterial activity (zone of inhibition, disc diffusion)” value ([1]; 100 μg) was “both antibacterial and antifungal activity” and the “antifungal activity (zone of inhibition, disc diffusion)” value ([2]; 50 μg) was “both antibacterial and antifungal activity”. The “antifungal activity (zone of inhibition, disc diffusion)” value ([2]; 100 μg) was “both antibacterial and antifungal activity”.

In the case of `CN1CCC(C(=O)c2cncc(-c3cccc(F)c3)c2)C1=O` (stereo not shown) [ARP100111, 3-(5-(3-fluorophenyl)nicotinoyl)-1-methylpyrrolidin-2-one], the “antibacterial activity on both gram positive and gram negative bacteria” value ([1]; 100 μg) is reported as “showed antibacterial activity”.

In the case of `O=C(O)Cc1ccccc1Nc1c(Cl)cccc1Cl` [Diclofenac, reference compound], the “Number of Writhing” value (Male Albino Mice; 5-15 minutes after 1% acetic acid i.p., Diclofenac 10 mg/kg i.p., ARP100120 3 mg/kg i.p.) is reported as 34.50 ± 1.586 and the “Percentage Inhibition (writhing)” value (Male Albino Mice; versus control, Diclofenac 10 mg/kg i.p., ARP100120 3 mg/kg i.p.) is reported as 26.86%.

`CN1CCC(C(=O)c2cncc(-c3ccc(F)cc3)c2)C1=O` (stereo not shown) [ARP100102, 3-(5-(4-fluorophenyl)nicotinoyl)-1-methylpyrrolidin-2-one] was tested, and the “antifungal activity (zone of inhibition, disc diffusion)” value ([2]; 5 μg) was “exhibit antifungal activity”, the “antifungal activity (zone of inhibition, disc diffusion)” value ([2]; 25 μg) was “exhibit antifungal activity” and the “antifungal activity (zone of inhibition, disc diffusion)” value ([2]; 50 μg) was “exhibit antifungal activity”. For the same compound, the “antifungal activity (zone of inhibition, disc diffusion)” value ([2]; 100 μg) was “exhibit antifungal activity”, the MIC [3] was no more than 0.05 µg/mL and the “antibacterial activity against Streptococcus mutans (inhibition zone)” value (Streptococcus mutans; 50 μg) was “good antibacterial activity”. The “antibacterial activity against Streptococcus mutans (inhibition zone)” value (Streptococcus mutans; 100 μg) was “good antibacterial activity”, the “antibacterial activity against Corynebacterium (inhibition zone)” value (Corynebacterium; 50 μg) was “good antibacterial activity” and the “antibacterial activity against Corynebacterium (inhibition zone)” value (Corynebacterium; 100 μg) was “good antibacterial activity”. For the same compound, the “analgesic activity (reaction time in hot plate test)” value (Male Wistar rats) was “demonstrate analgesic activity”.

`NC(=O)c1cnccn1` [Pyrazinamide] gave an MIC [3] of 3.12 µg/mL (≈ 25.4 µM).

With `O=C(O)c1cn(C2CC2)c2cc(N3CCNCC3)c(F)cc2c1=O` [Ciprofolxacin] the “MIC (minimum inhibition concentration)” value [3] was 3.125 µg/mL (≈ 9.43 µM).

`CN[C@@H]1[C@H](O[C@H]2[C@H](O[C@H]3[C@H](O)[C@@H](O)[C@H](N=C(N)N)[C@@H](O)[C@@H]3N=C(N)N)O[C@@H](C)[C@]2(O)C=O)O[C@@H](CO)[C@H](O)[C@H]1O` [Steptomycin] was tested, and the “MIC (minimum inhibition concentration)” value [3] was 6.25 µg/mL (≈ 10.7 µM).

With `CN1CCC(C(=O)c2cncc(-c3ccc4ccccc4c3)c2)C1=O` (stereo not shown) [ARP100119, 1-methyl-3-(5-(naphthalen-2-yl)nicotinoyl)pyrrolidin-2-one] the “antifungal activity (zone of inhibition, disc diffusion)” value ([2]; 50 μg) was “exhibit antifungal activity” and the “antifungal activity (zone of inhibition, disc diffusion)” value ([2]; 100 μg) was “exhibit antifungal activity”.

In the case of `CC(=O)Oc1ccc(-c2cncc(C(=O)C3CCN(C)C3=O)c2)cc1` (stereo not shown) [ARP100120, 4-(5-(1-methyl-2-oxopyrrolidine-3-carbonyl)pyridin-3-yl)phenyl acetate], the “antifungal activity (zone of inhibition, disc diffusion)” value ([2]; 100 μg) is reported as “exhibit antifungal activity” and the “analgesic activity (writhing test)” value (Male Albino Mice; 3 mg/kg i.p.) is reported as “demonstrate analgesic activity”.

`CC(=O)c1ccc(-c2cncc(C(=O)C3CCN(C)C3=O)c2)s1` (stereo not shown) [ARP100101, 3-(5-(5-acetylthiophen-2-yl)nicotinoyl)-1-methylpyrrolidin-2-one] was tested, and the “antifungal activity (zone of inhibition, disc diffusion)” value ([2]; 50 μg) was “exhibit antifungal activity” and the “antifungal activity (zone of inhibition, disc diffusion)” value ([2]; 100 μg) was “exhibit antifungal activity”.

For `COc1ccc(-c2cncc(C(=O)C3CCN(C)C3=O)c2)cc1` (stereo not shown) [ARP100108, 3-(5-(4-methoxyphenyl)nicotinoyl)-1-methylpyrrolidin-2-one], the “antifungal activity (zone of inhibition, disc diffusion)” value ([2]; 100 μg) was “exhibit antifungal activity”.

`CN1CCC(C(=O)c2cncc(-c3ccc(C=O)cc3)c2)C1=O` (stereo not shown) [ARP100106, 4-(5-(1-methyl-2-oxopyrrolidine-3-carbonyl)pyridin-3-yl)benzaldehyde] was tested, and the “antibacterial activity (zone of inhibition, disc diffusion)” value ([1]; 100 μg) was “both antibacterial and antifungal activity” and the “antifungal activity (zone of inhibition, disc diffusion)” value ([2]; 100 μg) was “both antibacterial and antifungal activity”.

`CN1CCCC1c1cccnc1` (stereo not shown) [Nicotine] was tested, and the “antibacterial activity (disc diffusion)” value ([1]; 1000 μg/ml) was “did not show any antibacterial activity”.

For `CCCCc1cncc(C(=O)C2CCN(C)C2=O)c1` (stereo not shown) [ARP100122, 3-(5-butylnicotinoyl)-1-methylpyrrolidin-2-one], the “antifungal activity (zone of inhibition, disc diffusion)” value ([2]; 100 μg) was “exhibit antifungal activity”.

For `Cc1cccc(-c2cncc(C(=O)C3CCN(C)C3=O)c2)c1` (stereo not shown) [ARP100104, 1-methyl-3-(5-m-tolylnicotinoyl)pyrrolidin-2-one], the “antifungal activity (zone of inhibition, disc diffusion)” value ([2]; 100 μg) was “exhibit antifungal activity”.

`CN1CCC(C(=O)c2cncc(-c3cccc(C=O)c3)c2)C1=O` (stereo not shown) [ARP100121, 3-(5-(1-methyl-2-oxopyrrolidine-3-carbonyl)pyridin-3-yl)benzaldehyde] was tested, and the “antifungal activity (zone of inhibition, disc diffusion)” value ([2]; 50 μg) was “exhibit antifungal activity” and the “antifungal activity (zone of inhibition, disc diffusion)” value ([2]; 100 μg) was “exhibit antifungal activity”.

— patent US8835640B1, “Nicotine derivatives” (priority 2011, dated 2014)
